SMILES strings stand for the structures. Read-outs that look alike come from different tables or passages of the source.

One series has as its target D3 (Homo sapiens, UniProt P35462). The conditions noted are these: cited from earlier work.
The test system of series [1] is cytochrome p450 (CPY) system. The conditions noted are these: cited from earlier work.
For series [2] the following is noted: in vivo; cited from earlier work.
For series [3] the following is noted: macroprolactinomas; cited from earlier work.
A short description of series [4]: Clinical cases: galactorrhea. The conditions noted are these: Example 2, risperidone 2 mg per day.
The conditions of series [5]: in vivo; cited from earlier work. The source holds these as a separate data set.
For series [6] the following is noted: in vivo; cited from earlier work. The source holds these as a separate data set.
Experiment in series [7]: not given
This is another data set of the same source.

The conditions of series [8]: cited from earlier work.
The conditions of series [9]: Parkinson's disease, 3.5-4.5 mg/day; decreased when the dose was lowered; cited from earlier work.
For series [10] the following is noted: bipolar II, 6 weeks, n=10; cited from earlier work.
Series [11] in a line: Clinical cases: appetite / hunger. The conditions noted are these: Example 10, olanzapine 2.5 mg HS.
[12] abbreviates: Example 12, approximately two months on pramipexole, same as before starting.
Setting [13] is: Example 9, pramipexole 0.25 mg AM & HS with quetiapine.

Chain of D3 (P35462 whole entry): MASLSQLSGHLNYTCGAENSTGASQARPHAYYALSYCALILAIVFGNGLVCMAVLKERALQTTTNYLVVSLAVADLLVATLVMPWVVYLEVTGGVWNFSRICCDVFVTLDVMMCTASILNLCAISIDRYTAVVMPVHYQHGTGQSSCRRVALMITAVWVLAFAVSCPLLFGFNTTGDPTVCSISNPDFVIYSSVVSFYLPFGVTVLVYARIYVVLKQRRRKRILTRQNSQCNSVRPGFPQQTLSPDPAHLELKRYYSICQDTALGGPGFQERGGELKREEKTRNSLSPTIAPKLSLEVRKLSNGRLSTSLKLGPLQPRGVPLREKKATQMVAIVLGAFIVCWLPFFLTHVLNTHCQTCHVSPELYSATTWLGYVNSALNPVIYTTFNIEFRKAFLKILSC

As for `CCCN(CCC)CCc1cccc2c1CC(=O)N2` [ropinirole], the “D3 affinity relative to pramipexole” value on D3 is “less D3 affinity”. Also, in series [1], the “interaction with the cytochrome p450 system” value is recorded as “p450 interactions”.

As to `CCCN1CC(NS(=O)(=O)N(CC)CC)CC2Cc3c(O)cccc3CC21` (centres unmarked) [Quinagolide, quinagolide], the half-life in series [2] was 24 h. In addition, the “patients with significant weight loss” value in series [3] is 11 of 12.

Regarding `Cc1nc2n(c(=O)c1CCN1CCC(c3noc4cc(F)ccc34)CC1)CCCC2` [risperidone], the galactorrhea entry in [4] is given as “developed galactorrhea”.

The molecule `C[C@]12C=CC(=O)C=C1CC[C@@H]1[C@@H]2C(=O)C[C@@]2(C)[C@H]1CC[C@]2(O)C(=O)CO` [prednisone] returned a weight after treatment (human, in vivo) of 185 pounds.

For `CC(C)C[C@H]1C(=O)N2CCC[C@H]2[C@]2(O)O[C@](NC(=O)[C@@H]3C=C4c5cccc6[nH]c(Br)c(c56)C[C@H]4N(C)C3)(C(C)C)C(=O)N12` [bromocriptine], in [5], the abdominal cramps is 4%, the constipation is 3%, the diarrhea is 3% and the dizziness is given as 17%. For the same molecule, in series [5], the drowsiness is listed as 3%, the fatigue is 7%, the headache is given as 19% and the “incidence of adverse effects” value was 69%. For the same molecule, in [5], the lightheadedness is on record as 5%, the nasal congestion was 3%, the nausea is 49% and the “patients in whom therapy was discontinued because of adverse effects” value is listed as “approximately 5%”. Further, the vomiting in [5] is on record as 5%.

For `CCCN[C@H]1CCc2nc(N)sc2C1` [pramipexole], the “excreted unchanged in the urine” value in series [6] is given as 90%. This molecule gave a triglycerides after pramipexole in series [7] (Example 7, pre-pramipexole 2.88 mmol/L) of 2.4 mmol/L. In addition, the cholesterol after pramipexole in series [7] (Example 7, pre-pramipexole 6.6 mmol/L) was 5.6 mmol/L. This molecule also showed a cholesterol in series [7] (setting [12]) of 7.5 mmol/L. In series [7] (setting [12]), the “fasting blood sugar (FBS)” value worked out at 6.6 mmol/L. This molecule also registered a triglycerides in series [7] (setting [12]) of 3.6 mmol/L. Moreover, the increase in anxiety in series [8] (early in the dose escalation) was 18 of 38. Moreover, the nausea reported in series [8] (fibromyalgia, 14 week study) is 79%. Further, the weight lost reads like this: (Example 1, pramipexole 0.25 mg twice per day with olanzapine 20 mg per day) 11 pounds; (Example 13, pramipexole up to 0.25 mg twice per day, in three weeks) 5 pounds. Moreover, the weight after treatment stood at 176 pounds (Example 1, pramipexole 0.25 mg twice per day with olanzapine 20 mg per day, from 187 pounds); 154 pounds (Example 5, pramipexole increased to 0.25 mg per day, after 6 weeks); 244 pounds (Example 6, pramipexole 0.25 mg per day, from 247 pounds); 212 pounds (Example 7, pramipexole 0.25 mg per day, later); 214 pounds (Example 7, pramipexole increased to 0.25 mg per day, in two weeks); 172 pounds (Example 12, pramipexole 0.25 mg twice per day). This molecule also gave a weight after treatment (Example 13, pramipexole up to 0.25 mg twice per day, from 132 pounds) of 127 pounds. Further, the weight maintained at is recorded as 202 pounds (Example 3, olanzapine 10 mg per day with pramipexole up to 0.75 mg per day, prednisone 5 mg per day added); 168 pounds (Example 4, olanzapine 5 mg per day with pramipexole 0.25 mg twice per day); 259 pounds (Example 8, olanzapine 15 mg per day with pramipexole 0.25 mg TID); 157 pounds under setting [13]; 312 pounds (Example 14, olanzapine 10 mg per day with pramipexole 0.25 mg twice per day, several months). Moreover, for the setting “Example 4, 0.25 mg twice daily, within the next two weeks”, the “weight after restarting pramipexole” value worked out at 174 pounds. In addition, the “weight after discontinuing pramipexole” value worked out at 181 pounds (Example 4, within one week, on olanzapine 5 mg per day) and 250 pounds (Example 6). Also, under setting [13], the “weight decreased by” value was determined as 3 pounds. The molecule also gave a weight gained (Example 11, pramipexole 0.25 mg AM & HS for 3 weeks, with quetiapine) of 5 pounds. For the same molecule, the “interaction with the cytochrome p450 system” value in series [1] is “does not interact”. In series [9], the effect on weight result is recorded as “caused weight gain”. Moreover, the “subjects who developed hypomanic symptoms” value in series [10] was “One”.

For `Cc1cc2c(s1)Nc1ccccc1N=C2N1CCN(C)CC1` [olanzapine], the appetite result in series [11] is given as “marked increase in appetite”.

In general, half-life refers to the time in which the quantity being followed falls by half.

These data come from patent US20100311717A1, “METHODS AND COMPOSITIONS FOR RETARDING WEIGHT GAIN ASSOCIATED WITH USE OF ATYPICAL ANTIPSYCHOTIC DRUGS” (priority 2007, published 2010).
